Source: patent US9522924B1, “Pyridone derivatives as acid secretion inhibitors and process for preparation thereof” (Emcure Pharmaceuticals Limited, priority 2012, dated 2016)
Where two headings read alike, the source gives them in different places.

What was measured:
[1] = target: T1, H^+/K^+ ATPase (Sus scrofa, UniProt P19156); assay: H+K+-ATPase assay (p-NPP to p-NP), enzyme from porcine (pig) fundus; type: biochemical; conditions: for IC50: enzyme from porcine fundus, pH 6.0, 30 min pre-incubation at 37° C.
T1 construct: using an enzyme isolated from the rabbit or porcine (pig) fundus; from tissue; host or cells: porcine (pig) gastric fundus
T1 sequence (P19156 2-1034 limits assumed): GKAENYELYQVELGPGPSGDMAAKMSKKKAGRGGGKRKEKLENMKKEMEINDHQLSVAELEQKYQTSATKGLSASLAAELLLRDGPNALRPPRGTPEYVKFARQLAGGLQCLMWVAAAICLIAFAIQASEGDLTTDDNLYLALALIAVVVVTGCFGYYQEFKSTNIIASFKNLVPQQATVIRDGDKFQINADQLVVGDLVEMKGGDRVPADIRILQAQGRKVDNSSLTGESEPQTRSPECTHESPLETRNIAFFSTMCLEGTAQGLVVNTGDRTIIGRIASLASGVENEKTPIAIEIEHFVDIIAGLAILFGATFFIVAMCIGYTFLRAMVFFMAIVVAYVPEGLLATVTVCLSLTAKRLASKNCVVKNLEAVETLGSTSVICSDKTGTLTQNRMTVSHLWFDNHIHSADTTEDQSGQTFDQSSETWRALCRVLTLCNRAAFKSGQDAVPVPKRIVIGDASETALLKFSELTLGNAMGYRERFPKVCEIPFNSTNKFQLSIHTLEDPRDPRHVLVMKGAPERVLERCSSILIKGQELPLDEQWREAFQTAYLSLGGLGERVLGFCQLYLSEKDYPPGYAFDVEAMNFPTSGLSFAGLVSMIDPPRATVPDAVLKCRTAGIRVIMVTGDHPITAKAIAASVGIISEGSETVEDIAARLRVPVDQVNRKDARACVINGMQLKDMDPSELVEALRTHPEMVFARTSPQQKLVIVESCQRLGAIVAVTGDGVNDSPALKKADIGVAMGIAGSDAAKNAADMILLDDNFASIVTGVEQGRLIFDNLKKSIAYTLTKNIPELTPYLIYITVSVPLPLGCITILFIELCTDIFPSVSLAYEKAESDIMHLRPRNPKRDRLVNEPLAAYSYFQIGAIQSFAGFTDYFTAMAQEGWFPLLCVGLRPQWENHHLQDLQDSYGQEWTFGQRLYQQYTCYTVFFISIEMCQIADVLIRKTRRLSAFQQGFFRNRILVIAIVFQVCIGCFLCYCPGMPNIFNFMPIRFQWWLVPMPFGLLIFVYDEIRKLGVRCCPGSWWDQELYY
T1 sequence (P18434 whole entry partner): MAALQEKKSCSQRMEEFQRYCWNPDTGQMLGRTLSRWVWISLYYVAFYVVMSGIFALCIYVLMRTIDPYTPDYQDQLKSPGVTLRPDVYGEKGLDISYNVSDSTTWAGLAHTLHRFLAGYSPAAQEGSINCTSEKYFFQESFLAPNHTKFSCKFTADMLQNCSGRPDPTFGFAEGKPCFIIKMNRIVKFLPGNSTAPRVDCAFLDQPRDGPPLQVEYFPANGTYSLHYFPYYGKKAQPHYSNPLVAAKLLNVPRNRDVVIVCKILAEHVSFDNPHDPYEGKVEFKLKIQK
Description: (§1) H+K+-ATPase Assay Protocol Description:
(§2) Evaluation of the effects of compounds on the activity of the H^+/K^+ ATPase activity was quantified by measuring the formation of para-nitrophenol (p-NP) from para-nitrophenol phosphate (p-NPP) using an enzyme isolated from the rabbit or porcine (pig) fundus.
(§3) The test compound, reference compound or water (control) are pre-incubated for 30 min at 37° C. with the enzyme (5 μg) in a buffer containing 40 mM Hepes/Tris (pH 6.0), 20 mM KCl, 5 mM MgCl2 and 1 mM ouabain. The enzymatic reaction was then initiated by the addition of 2 mM p-NPP.
(§4) The absorbance was measured immediately at k=405 nm using a microplate reader (EnVision, Perkin Elmer). This measurement at t=0 was also used to verify any compound interference with the spectrophotometric detection at the selected wavelength.
(§5) Thereafter, the mixture was incubated for 15 min at 37° C., after which time the reaction is stopped by addition of 0.5 M NaOH and a second measurement is made at the same wavelength (t=15). The enzyme activity is determined by subtracting the signal measured at t=0 from that measured at t=15. The results are expressed as a percent inhibition of the control enzyme activity.
(§6) The standard inhibitory reference compound is omeprazole,
(§7) Bibliographic reference: Dantzig, H., Minor, P. L. Garrigus, J. L., Fukuda, D. S. and Mynderse, J. S., Studies of the mechanism of action of A80915A, a semi-naphtolquinone natural product, as an inhibitor of gastric (H+/K+)-ATPase, Biochem. Pharmacol. (1991), 42: 2019.
(§8) Assay volume and format: 250 μl in 96-well plate
(§9) Compound addition: [100×] solution in solvent, then [10×] solution in water Maximum tolerable DMSO concentration: 1%

[2] = test system: Indomethacin-induced gastric ulceration; assay: Indomethacin-induced gastric ulceration model in rats; type: in vivo, female albino Wistar rats; conditions: oral, 1 hour before indomethacin 30 mg/kg p.o.; for ED (effect similar to omeprazole 10 mg/kg): Rattus norvegicus, read-out: Indomethacin-induced ulcer model (dose @ which effect is similar to 10mpk of omeprazole)
Description: The anti-ulcer efficacy of various test compounds (I-A-1 to I-A-11, I-B-1 to I-B-3) was assessed in Indomethacin—induced gastric ulceration model in female albino Wistar rats (Bhattacharya S., Banerjee D., Bauri A. K., Chattopadhyay S., Bandyopadhyay S. K. Healing property of the piper betelphenol, allylpyrocatechol against indomethacin-induced stomach ulceration and mechanism of action. World J Gastroenterol., 13(27): 3705-13, 2007; Lee A. Animal models of gastroduodenal ulcer disease. Bailliere's Best Pract. Res. Clinic Gastroenterol., 14(1): 75-96, 2000). The test compounds were administered orally at various doses (0.2, 0.4, 0.8 and 1.6 mg/kg) in comparison to Omeprazole (10 mg/kg) as standard comparator.
Experiments were conducted in overnight fasted healthy female albino Wistar rats maintained at controlled environmental conditions of temperature and humidity with water given ad libitum. Non-steroidal anti-inflammatory drug (NSAID), Indomethacin (30 mg/kg, p.o.) was used to induce gastric ulcer (treatment groups) with a comparative group without indomethacin treatment (negative group). Indomethacin was administered to treatment groups 1 hour after oral treatment with Vehicle (1% CMC), various doses of test compounds (EPPIs) and Omeprazole (10 mg/kg). After 4-6 hours after indomethacin administration, the animals were sacrificed by cervical dislocation and their stomach was dissected out. Various parameters like macroscopic ulcer index, gastric mucus content and gastric acid pH measurements were undertaken. The rat stomachs were cut opened along the greater curvature for macroscopic determination of ulcer index.

[3] = target: T1, H^+/K^+ ATPase; conditions: literature value (Keeling et al., Biochem Pharmacol 1985); read-out: IC50 (Pig-Porcine); cited from earlier work
[4] = target: T2, H^+/K^+ ATPase (Oryctolagus cuniculus, UniProt P27112); conditions: literature value (Scott and Sundell, Eur. J Pharmacol 1985); read-out: IC50 (Rabbit); cited from earlier work
T2 construct: using an enzyme isolated from the rabbit or porcine (pig) fundus; from tissue; host or cells: rabbit gastric fundus
T2 sequence (P27112 2-1035 limits assumed): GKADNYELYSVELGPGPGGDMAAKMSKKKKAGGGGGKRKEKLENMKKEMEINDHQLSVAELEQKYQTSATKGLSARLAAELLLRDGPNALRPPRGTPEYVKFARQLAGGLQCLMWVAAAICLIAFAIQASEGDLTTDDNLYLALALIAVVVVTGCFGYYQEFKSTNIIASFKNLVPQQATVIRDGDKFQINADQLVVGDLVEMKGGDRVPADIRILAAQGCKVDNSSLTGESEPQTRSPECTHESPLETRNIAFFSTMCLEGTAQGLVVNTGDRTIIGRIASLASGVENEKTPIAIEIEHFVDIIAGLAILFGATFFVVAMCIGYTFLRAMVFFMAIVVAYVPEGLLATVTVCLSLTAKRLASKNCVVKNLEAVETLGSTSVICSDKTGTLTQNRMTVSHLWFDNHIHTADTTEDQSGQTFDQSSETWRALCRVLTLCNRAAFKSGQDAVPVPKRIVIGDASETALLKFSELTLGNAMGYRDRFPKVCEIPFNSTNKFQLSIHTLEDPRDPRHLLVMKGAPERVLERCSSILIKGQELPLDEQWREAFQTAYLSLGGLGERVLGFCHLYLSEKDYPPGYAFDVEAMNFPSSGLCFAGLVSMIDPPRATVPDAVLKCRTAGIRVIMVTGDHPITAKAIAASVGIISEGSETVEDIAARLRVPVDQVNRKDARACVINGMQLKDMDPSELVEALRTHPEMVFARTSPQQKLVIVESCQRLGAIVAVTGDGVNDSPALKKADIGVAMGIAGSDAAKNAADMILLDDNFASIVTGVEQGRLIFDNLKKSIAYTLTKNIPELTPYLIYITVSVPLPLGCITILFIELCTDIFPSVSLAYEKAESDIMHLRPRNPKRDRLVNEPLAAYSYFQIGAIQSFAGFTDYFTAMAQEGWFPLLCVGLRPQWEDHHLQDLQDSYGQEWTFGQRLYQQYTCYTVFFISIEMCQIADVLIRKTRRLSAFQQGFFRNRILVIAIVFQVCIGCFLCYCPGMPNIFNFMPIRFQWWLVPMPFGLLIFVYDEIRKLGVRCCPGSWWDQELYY
T2 sequence (P18597 whole entry partner): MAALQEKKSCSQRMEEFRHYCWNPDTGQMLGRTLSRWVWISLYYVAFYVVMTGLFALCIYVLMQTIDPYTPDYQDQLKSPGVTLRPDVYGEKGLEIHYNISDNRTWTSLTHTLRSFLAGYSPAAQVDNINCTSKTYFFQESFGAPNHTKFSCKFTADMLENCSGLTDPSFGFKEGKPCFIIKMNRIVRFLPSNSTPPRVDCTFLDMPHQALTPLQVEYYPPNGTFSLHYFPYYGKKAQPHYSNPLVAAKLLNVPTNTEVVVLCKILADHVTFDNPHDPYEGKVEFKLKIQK

[5] = target: T2, H^+/K^+ ATPase; assay: H+K+-ATPase assay (p-NPP to p-NP), enzyme from rabbit fundus; type: biochemical; conditions: pH 6.0, 30 min pre-incubation at 37° C.
Description: as §1, §2, §3, §4, §5, §6, §7, §8, §9

| Structure (SMILES) | percent inhibition of the control enzyme activity (printed in IC50 (Pig-Porcine) column) ([1]; @ 3-30 uM) [% @ 3-30 uM] | IC50 [1] [nM] | IC50 [5] [nM] | Indomethacin-induced ulcer model (dose @ which effect is similar to 10mpk of omeprazole) [2] [mg/kg] | IC50 [3] [nM] | IC50 [4] [nM] | ED (effect similar to omeprazole 10 mg/kg) [2] [mg/kg] |
| --- | --- | --- | --- | --- | --- | --- | --- |
| COc1ccc2[nH]c(-n3cc(C)c(=O)c(C)c3C[S+]([O-])[S+]([O-])Cc3c(C)c(=O)c(C)cn3-c3nc4nc(OC)ccc4[nH]3)nc2n1 (centres unmarked) [I-B-3, 2-((2-((1,4-dihydro-1-(5-methoxy-1H-imidazo[4,5-b]pyridin-2-yl)-3,5-dimethyl-4-oxopyridin-2-yl)methyl)disulfinyl)methyl)-1-(5-methoxy-1H-imidazo[4,5-b]pyridin-2-yl)-3,5-dimethylpyridin-4(1H)-one] | 45 | – | – | 1.6 | – | – | – |
| COc1ccc2[nH]c([S+]([O-])Cc3ncc(C)c(OC)c3C)nc2c1 (centres unmarked) [Omeprazole, omeprazole] | – | – | – | – | 3900 | 4000 | – |
| Cc1cn(-c2nc3ncccc3[nH]2)c(CSSCc2c(C)c(=O)c(C)cn2-c2nc3ncccc3[nH]2)c(C)c1=O [I-B-1, 2-((2-((1,4-dihydro-1-(1H-imidazo[4,5-b]pyridin-2-yl)-3,5-dimethyl-4-oxopyridin-2-yl)methyl)disulfinyl)methyl)-1-(1H-imidazo[4,5-b]pyridin-2-yl)-3,5-dimethylpyridin-4(1H)-one] | – | 14000 | 2800 | – | – | – | 1.6 |
| Cc1ccc2[nH]c(-n3cc(C)c(=O)c(C)c3CSSCc3c(C)c(=O)c(C)cn3-c3nc4cc(C)ccc4[nH]3)nc2c1 [I-A-4] | – | 2900 | 1600 | – | – | – | – |
| Cc1cn(-c2nc3ccccc3[nH]2)c(CSSCc2c(C)c(=O)c(C)cn2-c2nc3ccccc3[nH]2)c(C)c1=O [I-A-2] | – | 1300 | 1000 | – | – | – | 1.6 |
| COc1ccc2[nH]c(-n3ccc(=O)c(OC)c3CSSCc3c(OC)c(=O)ccn3-c3nc4cc(OC)ccc4[nH]3)nc2c1 [I-A-7, 2-((2-((1,4-dihydro-3-methoxy-1-(5-methoxy-1H-benzo[d]imidazol-2-yl)-4-oxopyridin-2-yl)methyl)disulfinyl)methyl)-3-methoxy-1-(5-methoxy-1H-benzo[d]imidazol-2-yl)pyridin-4(1H)-one] | – | 4700 | 1200 | – | – | – | 1.6 |
| COc1c(CSSCc2c(OC)c(=O)ccn2-c2nc3ccccc3[nH]2)n(-c2nc3ccccc3[nH]2)ccc1=O [I-A-3] | – | 2000 | 1100 | – | – | – | 1.6 |
| O=c1ccn(-c2nc3ccccc3[nH]2)c(C[S+]([O-])[S+]([O-])Cc2cc(=O)ccn2-c2nc3ccccc3[nH]2)c1 (centres unmarked) [I-A-1, 2-((2-((1-(1H-benzo[d]imidazol-2-yl)-1,4-dihydro-4-oxopyridin-2-yl)methyl)disulfinyl)methyl)-1-(1H-benzo[d]imidazol-2-yl)pyridin-4(1H)-one] | – | 1800 | 1000 | 1.6 | – | – | – |
| COc1c(CSSCc2c(OC)c(=O)ccn2-c2nc3cc(C(F)(F)F)ccc3[nH]2)n(-c2nc3cc(C(F)(F)F)ccc3[nH]2)ccc1=O [I-A-9] | – | 1700 | 1100 | – | – | – | 1.6 |

More lines, in order of falling IC50 [1], values ahead:

| percent inhibition of the control enzyme activity (printed in IC50 (Pig-Porcine) column) ([1]; @ 3-30 uM) [% @ 3-30 uM] | IC50 [1] [nM] | IC50 [5] [nM] | Structure (SMILES) | Indomethacin-induced ulcer model (dose @ which effect is similar to 10mpk of omeprazole) [2] [mg/kg] | IC50 [3] [nM] | IC50 [4] [nM] | ED (effect similar to omeprazole 10 mg/kg) [2] [mg/kg] |
| --- | --- | --- | --- | --- | --- | --- | --- |
| – | 8400 | 2000 | COc1ccc2[nH]c(-n3ccc(=O)c(OC)c3CSSCc3c(OC)c(=O)ccn3-c3nc4nc(OC)ccc4[nH]3)nc2n1 [I-B-2] | – | – | – | 1.6 |
| – | 4100 | 1300 | COc1ccc2[nH]c(-n3cc(C)c(=O)c(C)c3CSSCc3c(C)c(=O)c(C)cn3-c3nc4cc(OC)ccc4[nH]3)nc2c1 [I-A-6] | – | – | – | – |
| – | 3300 | 1500 | COc1c(CSSCc2c(OC)c(=O)ccn2-c2nc3cc(OC(F)F)ccc3[nH]2)n(-c2nc3cc(OC(F)F)ccc3[nH]2)ccc1=O [I-A-11] | – | – | – | 1.6 |
| – | 2300 | 1300 | COc1c(CSSCc2c(OC)c(=O)ccn2-c2nc3cc(C)ccc3[nH]2)n(-c2nc3cc(C)ccc3[nH]2)ccc1=O [I-A-5] | – | – | – | 1.6 |
| – | 1300 | 1200 | Cc1cn(-c2nc3cc(F)ccc3[nH]2)c(CSSCc2c(C)c(=O)c(C)cn2-c2nc3cc(F)ccc3[nH]2)c(C)c1=O [I-A-8] | – | – | – | 1.6 |
